Data on seven compounds can be found in patent US6664224B2, “Quaternary ammonium salt and process for the preparation thereof” (priority 2000, dated 2003).

For data set [1], the system named is Escherichia coli K12 W 3110. Briefly: MIC by agar plate dilution method. The data set is classed as cell-based. As to conditions: E. coli, 37° C. 24 hours. Here is the method:
(§1) MIC value was determined by an agar plate dilution method according to the Law of Japanese Society of Chemotherapy. In some detail, a bacteria solution in stationary state which had been adjusted with a nutrient broth such that the concentration of bacterial suspension reached 10^6 cell/ml was added to agar culture media containing chemical solutions having concentrations which vary in two stages where it was then allowed to stand at a temperature of 37° C. for 24 hours for culture. The bacteria solution was then examined to see if the proliferation of bacteria occurred. Thus, MIC was determined.
(§2) The following three kinds of bacteria were used as sample bacteria:
Escherichia coliK12 W 3110 (E. coli);

The subject of data set [2] is Pseudomonas aeruginosa ATCC27583. The data set can be described thus: MIC by agar plate dilution method. As to conditions: P. aeruginosa, 37° C. 24 hours. The data set is classed as cell-based. How it is done:
as §1, §2
Pseudomonas aeruginosa ATCC27583 (P. auruginosa); and […]

Data set [3] deals with Staphylococcus aureus IFO 12732. The data set can be described thus: MIC by agar plate dilution method. The class given is cell-based. As to conditions: S. aureus, 37° C. 24 hours. Here is the method: as §1, §2
Staphylococcus aureus IFO 12732 (S. aureus)

Data set [4] concerns Aspergillus niger IFO 6431. The data set can be described thus: Minimum development inhibiting concentration (MIC) against fungi. The class given is cell-based. The settings on record: A. niger; spore solution, 27° C. 1 week. How it is done: (§3) A sample fungus which had been pre-cultured was diluted with a wetting agent-containing sterilized water according to an ordinary broth dilution method to prepare a spore solution. 1 ml of the spore solution was then mixed with 1 ml of each of chemical solutions having concentrations which vary stepwise. The mixture was then cultured at a temperature of 27° C. in an incubator for 1 week. The culture was then examined for turbidity to see if the proliferation of fungus occurred. The minimum concentration at which no turbidity occurs was defined to be MIC.
(§4) Aspergillus niger IFO 6431 (A. niger) and Candida albicans ATCC10231 (C. albicans) were used as sample microorganisms.

Data set [5] relates to Candida albicans ATCC10231. The description is as above. The class given is cell-based. The settings on record: C. albicans; spore solution, 27° C. 1 week. Here is the method: as §3, §4
The next data set deals with Bacillus cereus IFO 3001. Briefly: Minimum bactericidal concentration (MBC) against bacteria. The settings on record: culture 37° C. 24 hours. The data set is classed as cell-based. Here is the method:
(§5) A bacteria solution in the initial stage of logarithmic productive phase which had been adjusted with a nutrient broth according to an ordinary sterilized water dilution method such that the concentration of bacterial suspension reached 10^6 cell/ml was brought into contact with chemical solutions having concentrations which vary stepwise at a temperature of 30° C. for 30 minutes, and then transplanted to a nutrient broth where it was then allowed to stand at a temperature of 37° C. for 24 hours for culture. The nutrient broth was then examined to see if the proliferation of bacteria occurred. Thus, MBC was determined.
(§6) Five kinds of gram-negative bacteria and four kinds of gram-positive bacteria were used as sample bacteria.
(§7) BAMP-6 (Example 12), BAMD-6,8 (Example 13), BAMT-6 (Example 17) and benzalkonium chloride (Comparative Example 1) were determined for MBC value against 5 kinds of gram-negative bacteria and 4 kinds of gram-positive bacteria in the same manner as in Test Example 1.

In data set [6] the test system is Bacillus subtilis IFO 3134. The data set is described as above. The settings on record: culture 37° C. 24 hours. The data set is classed as cell-based. How it is done:
as §5, §6, §7

The test system of data set [7] is Escherichia coli K12 OUT 8401. The description is as above. The class given is cell-based. The settings on record: culture 37° C. 24 hours. Here is the method:
as §5, §6, §7

For data set [8], the system named is Escherichia coli K12 W 3110. The data set is described as above. The class given is cell-based. The settings on record: culture 37° C. 24 hours. Here is the method:
as §5, §6, §7

Data set [9] relates to Klebsiella pneumoniae ATCC 13883. The data set is described as above. The data set is classed as cell-based. The settings on record: culture 37° C. 24 hours. How it is done:
as §5, §6, §7

The test system of the next data set is Proteus rettgeri NIT 96. Described as above. The data set is classed as cell-based. As to conditions: culture 37° C. 24 hours. Here is the method: as §5, §6, §7
Data set [10] relates to Pseudomonas aeruginosa ATCC 27583. Described as above. The data set is classed as cell-based. The settings on record: culture 37° C. 24 hours. How it is done: as §5, §6, §7
Data set [11] relates to Staphylococcus aureus IFO 12732. Described as above. The data set is classed as cell-based. The settings on record: culture 37° C. 24 hours. Here is the method:
as §5, §6, §7

The test system of data set [12] is Bacillus substilis ATCC 6633. The data set is described as above. The class given is cell-based, Bacillus subtilis. The settings on record: culture 37° C. 24 hours. Here is the method:
as §5, §6, §7

The subject of data set [13] is Escherichia coli K12 W 3110. Briefly: Minimum development inhibiting concentration (MIC) against bacteria, broth dilution method. The data set is classed as cell-based. The settings on record: for MIC Escherichia coli K12 W 3110: 37° C. 24 hours; for MIC: Escherichia coli, K12W3110, 37° C. 24 hours. Here is the method:
A bacteria solution in stationary state which had been adjusted with a nutrient broth according to an ordinary broth dilution method such that the concentration of bacterial suspension reached 10^6 cell/ml was added to chemical solutions having concentrations which vary stepwise where it was then allowed to stand at a temperature of 37° C. for 24 hours for culture. The bacteria solution was then examined to see if the proliferation of bacteria occurred. Thus, MIC was determined.
Escherichia coli K12 W 3110 was used as a sample bacterium. Compounds obtained in Examples 1 to 9 and benzalkonium chloride prepared in Comparative Example 1 were used as test samples.
The compounds obtained in Examples 10 to 19 and benzalkonium chloride were determined for MIC value against Escherichia coli K12 W 3110 in the same manner as in Test Example 3.

For the next data set, the system named is rat. Briefly: Oral toxicity test on rat (LD50). The class given is in vivo. Here is the method:
The quaternary ammonium salt of the invention is a compound having an extremely high safety, i.e., LD50 (rat) of not smaller than 2,000 mg/kg in oral toxicity test on rat.
The sample 4BAMP-6C thus obtained was then determined for oral toxicity (LD50: rat). The results were greater than 2,000 mg/kg.

Another data set concerns Erythrocyte. The data set can be described thus: Minimum hemolytic activity concentration against erythrocyte. The class given is cell-based. As to conditions: human erythrocyte, 37° C. 1 hour, O.D.540, 50% hemolysis. How it is done: Human blood was collected. The sample blood was then mixed with the equal amount of alsebar solution (glucose: 2.05 g; NaCl: 0.42 g; sodium citrate: 0.8 g; citric acid: 0.55 g; pH: 6.1). The mixture was then stored at a temperature of 4° C. Shortly before used for experiment, the alsebar stored blood was subjected to centrifugal separation. Thus, the supernatant liquid and the leukocyte layer on the erythrocyte were removed. To the erythrocyte was then added PBS in an amount of […] that of the erythrocyte to obtain a 50% erythrocyte. 10 μl of the 50% erythrocyte was then mixed with 990 μl of each of chemicals which had been diluted with PBS in amounts varying stepwise. The erythrocyte was acted upon by the chemical at a temperature of 37° C. for 1 hour. The mixture was then subjected to centrifugal separation. The supernatant liquid was collected for the measurement of the optical density at 540 nm (O.D.540). Separately, the foregoing procedure was followed except that no chemicals were used to prepare a 0% hemolytic control. The foregoing procedure was followed except that Milliq water was used instead of PBS to prepare a 100% hemolytic control. For the minimum hemolytic activity concentration of chemical, the minimum concentration at which the hemolytic concentration is […] was determined.

Like-named read-outs stand apart in the source and are kept apart here.

As for “1,4-bis(N-octyl-N-hexyl-N-methylammoniomethyl)phenylene dibromide [4BAMP-6, 8B]”, the MIC in data set [1] is 8 ppm; in [2] it was less than 2 ppm; in data set [3], less than 2 ppm; in [4] it was 8 ppm; in data set [5] it was less than 2 ppm.

For “1,4-bis(N-octyl-N-hexyl-N-methylammoniomethyl)-2,3,5,6-tetramethylphenylene dichloride [BAMD-6, 8]”, the MBC (in the data set with Bacillus cereus IFO 3001 (contact 30° C. 30 minutes); in [6] (contact 30° C. 30 minutes); in data set [7] (contact 30° C. 30 minutes); in data set [8] (contact 30° C. 30 minutes); in data set [9] (contact 30° C. 30 minutes); with Proteus rettgeri NIT 96 (contact 30° C. 30 minutes)) was less than 2 ppm throughout. Further, the MBC in data set [10] (contact 30° C. 30 minutes), in data set [11] (contact 30° C. 30 minutes) and in data set [12] (contact 30° C. 30 minutes) was less than 2 ppm in each case. Further, the “MIC Escherichia coli K12 W 3110” value in [13] worked out at 1 ppm.

For “1,4-bis(N,N-dihexyl-N-methylammoniomethyl)phenylene di-p-toluenesulfonate [Example 4BAMP-6S]”, the MBC against Bacillus cereus IFO 3001 (contact 30° C. 30 minutes) is 4 ppm; in data set [6] (contact 30° C. 30 minutes) it was less than 2 ppm; in [7] (contact 30° C. 30 minutes), 4 ppm; in data set [8] (contact 30° C. 30 minutes), 8 ppm; in [9] (contact 30° C. 30 minutes), less than 2 ppm; with Proteus rettgeri NIT 96 (contact 30° C. 30 minutes), less than 2 ppm. For the same compound, the MBC in data set [10] (contact 30° C. 30 minutes) was 8 ppm; in data set [11] (contact 30° C. 30 minutes), less than 2 ppm; in [12] (contact 30° C. 30 minutes), less than 2 ppm. In data set [13], the “MIC Escherichia coli K12 W 3110” value was determined as 2 ppm. Moreover, the “oral toxicity LD50” value in the data set on rat is recorded as “greater than 2,000 mg/kg”.

Take `CCCCCC[N+](C)(CCCCCC)Cc1c(C)cc(C)c(C[N+](C)(CCCCCC)CCCCCC)c1C.[Cl-].[Cl-]` [BAMT-6, 2,4-bis(N,N-dihexyl-N-methylammoniomethyl)-1,3,5-trimethylbenzene dichloride]: the MBC in the data set on Bacillus cereus IFO 3001 (IFO3001, contact 30° C. 30 minutes, read-out: MBC) is less than 2 µg/mL; in data set [6] (IFO3134, contact 30° C. 30 minutes, read-out: MBC), less than 2 µg/mL; in [7] (K12OUT8401, contact 30° C. 30 minutes, read-out: MBC), less than 2 µg/mL; in data set [8] (K12W3110, contact 30° C. 30 minutes, read-out: MBC), 4 µg/mL; in data set [9] (ATCC13883, contact 30° C. 30 minutes, read-out: MBC), less than 2 µg/mL; in the data set with Proteus rettgeri NIT 96 (Providencia rettgeri, NIT96, contact 30° C. 30 minutes, read-out: MBC) it was less than 2 µg/mL. The MBC in data set [10] (ATCC27583, contact 30° C. 30 minutes, read-out: MBC) was 4 µg/mL; in data set [11] (IFO12732, contact 30° C. 30 minutes, read-out: MBC), less than 2 µg/mL; in [12] (ATCC6633, contact 30° C. 30 minutes, read-out: MBC) it was less than 2 µg/mL. This compound also yielded an MIC in data set [13] of 1 µg/mL. The “Minimum hemolytic activity concentration Erythrocyte” value in the data set with Erythrocyte is given as 400 ppm.

Turning to “1,4-bis(N,N-dihexyl-N-methylammoniomethyl)-2,3,5,6-tetramethylphenylene dichloride [BAMD-6]”, the MBC is less than 2 ppm in the data set with Bacillus cereus IFO 3001 (contact 30° C. 30 minutes); less than 2 ppm in [6] (contact 30° C. 30 minutes); less than 2 ppm in data set [7] (contact 30° C. 30 minutes); 4 ppm in data set [8] (contact 30° C. 30 minutes); less than 2 ppm in data set [9] (contact 30° C. 30 minutes); less than 2 ppm with Proteus rettgeri NIT 96 (contact 30° C. 30 minutes). Besides, the MBC in [10] (contact 30° C. 30 minutes) is reported as 4 ppm; in [11] (contact 30° C. 30 minutes) it was less than 2 ppm; in data set [12] (contact 30° C. 30 minutes) it was less than 2 ppm. The “MIC Escherichia coli K12 W 3110” value in data set [13] was determined as 1 ppm. The “Minimum hemolytic activity concentration Erythrocyte” value in the data set on Erythrocyte was found to be 400 ppm. The “oral toxicity LD50” value in the data set on rat was “greater than 2,000 mg/kg”.

As for “1,4-bis(N,N-dipentyl-N-methylammoniomethyl)phenylene dichloride [Example 4BAMP-5C]”, the MIC in data set [1] was 16 ppm; in data set [2] it was 4 ppm; in data set [3] it was less than 2 ppm; in data set [4], 16 ppm; in [5], 8 ppm. For the same compound, in the data set with Erythrocyte, the “Minimum hemolytic activity concentration Erythrocyte” value is listed as 1,600 ppm.

In the case of `CCCCC[N+](C)(CCCCC)Cc1c(C)cc(C)c(C[N+](C)(CCCCC)CCCCC)c1C.[Cl-].[Cl-]` [BAMT-5, 2,4-bis(N,N-dipentyl-N-methylammoniomethyl)-1,3,5-trimethylbenzene dichloride], the MIC in [13] stood at 2 µg/mL. Moreover, the “Minimum hemolytic activity concentration Erythrocyte” value with Erythrocyte is on record as 800 ppm.
